Measurements: PubChem BioAssay AID330 (DTP/NCI, 2004)
Several values for one entry are separate records, joined by “and”; a condition that tells them apart may be missing. Identical values can stand only once. Toxic doses and inconclusive results are not listed. How the source made its calls: active means survival T/C of 150% or more; inactive means T/C below 125% in these data.

Tested on: P388 leukemia ip, CD2F1 mice, survival T/C
Assay: NCI In Vivo Anticancer Drug Screen. Data for tumor model P388 Leukemia (intraperitoneal) in CD2F1 (CDF1) mice
Details: endpoint: median survival time, higher = longer survival
In short: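 Mice carrying the transplanted tumor received test compound or vehicle. Survival was recorded in each group, and the value is the treated-group measurement divided by that of the vehicle-treated control group.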

[1] = dose: 12.5 mg/kg/injection, schedule: Q01DX009 (ip), vehicle: saline with Tween-80
[2] = dose: 25.0 mg/kg/injection, schedule: Q01DX009 (ip), vehicle: saline with Tween-80
[3] = dose: 50.0 mg/kg/injection, schedule: Q01DX009 (ip), vehicle: saline with Tween-80
[4] = dose: 25.0 mg/kg/injection, schedule: Q01DX009 (ip), vehicle: saline
[5] = dose: 50.0 mg/kg/injection, schedule: Q01DX009 (ip), vehicle: saline
[6] = dose: 100.0 mg/kg/injection, schedule: Q01DX009 (ip), vehicle: saline
[7] = dose: 200.0 mg/kg/injection, schedule: Q01DX009 (ip), vehicle: saline
[8] = dose: 6.25 mg/kg/injection, schedule: Q01DX009 (ip), vehicle: saline with Tween-80
[9] = dose: 100.0 mg/kg/injection, schedule: Q01DX009 (ip), vehicle: saline with Tween-80
[10] = dose: 200.0 mg/kg/injection, schedule: Q01DX009 (ip), vehicle: saline with Tween-80
[11] = dose: 60.0 mg/kg/injection, schedule: Q01DX005 (ip), vehicle: saline
[12] = dose: 120.0 mg/kg/injection, schedule: Q01DX005 (ip), vehicle: saline
[13] = dose: 240.0 mg/kg/injection, schedule: Q01DX005 (ip), vehicle: saline
[14] = dose: 25.0 mg/kg/injection, schedule: Q01DX005 (ip), vehicle: Klucel (hydroxypropylcellulose) (HPC)
[15] = dose: 50.0 mg/kg/injection, schedule: Q01DX005 (ip), vehicle: Klucel (hydroxypropylcellulose) (HPC)
[16] = dose: 100.0 mg/kg/injection, schedule: Q01DX005 (ip), vehicle: Klucel (hydroxypropylcellulose) (HPC)
[17] = dose: 400.0 mg/kg/injection, schedule: Q01DX009 (ip), vehicle: saline with Tween-80
[18] = dose: 50.0 mg/kg/injection, schedule: Q01DX005 (ip), vehicle: saline with Tween-80
[19] = dose: 100.0 mg/kg/injection, schedule: Q01DX005 (ip), vehicle: saline with Tween-80
[20] = dose: 200.0 mg/kg/injection, schedule: Q01DX005 (ip), vehicle: saline with Tween-80
[21] = dose: 60.0 mg/kg/injection, schedule: Q01DX005 (ip), vehicle: saline with Tween-80
[22] = dose: 120.0 mg/kg/injection, schedule: Q01DX005 (ip), vehicle: saline with Tween-80
[23] = dose: 30.0 mg/kg/injection, schedule: Q01DX005 (ip), vehicle: saline with Tween-80
[24] = dose: 200.0 mg/kg/injection, schedule: Q01DX005 (ip), vehicle: Klucel (hydroxypropylcellulose) (HPC)

Measured: T/C

CN1CCC(CN2c3ccccc3Sc3ccccc32)C1 (stereo not drawn)
inactive: [1] 104 % of control | [2] 107 % of control | [3] 116 % of control

Cn1c(=O)c2[nH]c(Cl)nc2n(C)c1=O
inactive: [4] 100 % of control | [5] 102 % of control | [6] 102 % of control | [7] 99 % of control

Cc1c(O)c2c(c(O)c1Cc1ccc(C#N)cc1)C(=O)c1ccccc1C2=O
inactive: [8] 94 % of control | [1] 91 % of control | [2] 90 % of control | [3] 91 % of control | dose: 200.0 mg/kg/injection, schedule: Q01DX009 (ip), vehicle: Klucel (hydroxypropylcellulose) (HPC) 89 % of control

Nc1nc(=O)[nH]s1
inactive: [8] 98 % of control | [1] 87 % of control and 94 % of control | [9] 95 % of control | [10] 90 % of control

Clc1cc(Cl)nc(N2CC2)n1
inactive: dose: 5.0 mg/kg/injection, schedule: Q01DX009 (ip), vehicle: saline with Tween-80 116 % of control | dose: 5.0 mg/kg/injection, schedule: Q04DX003 (ip), vehicle: saline with Tween-80 100 % of control | dose: 10.0 mg/kg/injection, schedule: Q01DX009 (ip), vehicle: saline with Tween-80 100 % of control | dose: 10.0 mg/kg/injection, schedule: Q04DX003 (ip), vehicle: saline with Tween-80 104 % of control | dose: 20.0 mg/kg/injection, schedule: Q04DX003 (ip), vehicle: saline with Tween-80 118 % of control

CCc1cc(-c2cc(CC)on2)no1
inactive: [11] 103 % of control | [12] 100 % of control | [13] 91 % of control

CC(C)(C)OC(=O)NCCCCC(NC(=O)OCc1ccccc1)C(=O)O (stereo not drawn)
inactive: [14] 102 % of control | [15] 100 % of control | [16] 101 % of control

CCOC(=O)c1ccc(Nc2sc(C(=O)c3ccc(Br)cc3)c(N)c2C#N)cc1
inactive: [3] 100 % of control | [9] 108 % of control | [10] 90 % of control | [17] 86 % of control

CCOC(=O)C1C(=O)CN(C(=O)OC)C1C (stereo not drawn)
inactive: [18] 96 % of control | [19] 99 % of control | [20] 93 % of control

O=S(=O)(O)O.[Fe]
inactive: [1] 95 % of control | [2] 95 % of control | [3] 86 % of control

O=c1[nH]cnc2[nH]ncc12
inactive: dose: 20.0 mg/kg/injection, schedule: Q01DX005 (ip), vehicle: saline with Tween-80 104 % of control | dose: 40.0 mg/kg/injection, schedule: Q01DX005 (ip), vehicle: saline with Tween-80 110 % of control | dose: 50.0 mg/kg/injection, schedule: Q01DX009 (ip), vehicle: saline sonified 95 % of control | [3] 95 % of control | dose: 50.0 mg/kg/injection, schedule: Q04DX003 (ip), vehicle: saline sonified 109 % of control | dose: 50.0 mg/kg/injection, schedule: Q04DX003 (ip), vehicle: saline with Tween-80 90 % of control | dose: 80.0 mg/kg/injection, schedule: Q01DX005 (ip), vehicle: saline with Tween-80 106 % of control | dose: 100.0 mg/kg/injection, schedule: Q01DX009 (ip), vehicle: saline sonified 100 % of control | [9] 95 % of control | dose: 100.0 mg/kg/injection, schedule: Q04DX003 (ip), vehicle: saline sonified 95 % of control | dose: 100.0 mg/kg/injection, schedule: Q04DX003 (ip), vehicle: saline with Tween-80 95 % of control | dose: 160.0 mg/kg/injection, schedule: Q01DX005 (ip), vehicle: saline with Tween-80 104 % of control | dose: 200.0 mg/kg/injection, schedule: Q01DX009 (ip), vehicle: saline sonified 100 % of control | dose: 200.0 mg/kg/injection, schedule: Q04DX003 (ip), vehicle: saline sonified 113 % of control | dose: 200.0 mg/kg/injection, schedule: Q04DX003 (ip), vehicle: saline with Tween-80 104 % of control

CC(C)(C)OOC(=O)c1ccc(Cl)cc1
inactive: dose: 100.0 mg/kg/injection, schedule: Q04DX002 (ip), vehicle: saline with Tween-80 96 % of control | dose: 200.0 mg/kg/injection, schedule: Q04DX002 (ip), vehicle: saline with Tween-80 95 % of control | dose: 400.0 mg/kg/injection, schedule: Q04DX002 (ip), vehicle: saline with Tween-80 101 % of control

COc1ccc(Cc2coc3ccccc3c2=O)cc1OC
inactive: [21] 102 % of control | [22] 97 % of control | dose: 240.0 mg/kg/injection, schedule: Q01DX005 (ip), vehicle: saline with Tween-80 97 % of control

C[n+]1ccc(C(c2ccccc2)c2ccccc2)cc1
inactive: dose: 6.25 mg/kg/injection, schedule: Q01DX009 (ip), vehicle: saline 104 % of control | dose: 12.5 mg/kg/injection, schedule: Q01DX009 (ip), vehicle: saline 112 % of control | [4] 100 % of control

CC1CCC2C(C)C3C(CC4C5CC=C6CC(OC7OC(CO)C(O)C(OC8OC(CO)C(O)C(O)C8O)C7OC7OC(C)C(O)C(O)C7O)CCC6(C)C5CCC43C)N2C1 (stereo not drawn)
inactive: dose: 6.25 mg/kg/injection, schedule: Q01DX005 (ip), vehicle: Klucel (hydroxypropylcellulose) (HPC) 91 % of control | dose: 12.5 mg/kg/injection, schedule: Q01DX005 (ip), vehicle: Klucel (hydroxypropylcellulose) (HPC) 95 % of control | [14] 89 % of control | dose: 25.0 mg/kg/injection, schedule: Q04DX003 (ip), vehicle: suspension in saline 98 % of control | dose: 50.0 mg/kg/injection, schedule: Q04DX003 (ip), vehicle: suspension in saline 96 % of control | dose: 100.0 mg/kg/injection, schedule: Q04DX003 (ip), vehicle: suspension in saline 105 % of control

O=C(/C=C/c1ccc(O)c(O)c1)NCC(=O)NC(Cc1ccccc1)C(=O)O (stereo not drawn)
inactive: [18] 99 % of control | [19] 100 % of control | [20] 103 % of control

O=C(OCCOc1ccc(C(F)(F)F)cc1[N+](=O)[O-])c1ccc(Cl)cc1Cl
inactive: dose: 15.0 mg/kg/injection, schedule: Q01DX005 (ip), vehicle: saline with Tween-80 90 % of control | [23] 91 % of control | [21] 88 % of control

O=C1c2ccccc2C(=Nc2ccccc2)c2c1c(O)n(-c1ccccc1)c2O
inactive: [15] 97 % of control | [16] 91 % of control | [24] 96 % of control

Nc1c(Cl)c(Cl)c(Br)c(Cl)c1Cl
inactive: [3] 92 % of control | [9] 90 % of control

CCOc1ccc(NC(=O)N(c2ccnc3ccccc23)C(C)CCCN(CC)CC)cc1 (stereo not drawn)
inactive: [15] 98 % of control | [16] 103 % of control | [24] 98 % of control

CCCCNc1nc(C(F)(F)F)nc2nc[nH]c12
inactive: [15] 103 % of control | [16] 94 % of control | [24] 94 % of control

O=C1CCSCC1
inactive: [3] 99 % of control | [9] 113 % of control | [10] 100 % of control | [17] 98 % of control

CCOC(=O)c1sc(N)nc1C
inactive: dose: 9.0 mg/kg/injection, schedule: Q01DX009 (ip), vehicle: saline with Tween-80 111 % of control | dose: 18.0 mg/kg/injection, schedule: Q01DX009 (ip), vehicle: saline with Tween-80 90 % of control | [2] 105 % of control | dose: 36.0 mg/kg/injection, schedule: Q01DX009 (ip), vehicle: saline with Tween-80 99 % of control | [3] 106 % of control and 112 % of control and 113 % of control | [9] 108 % of control and 115 % of control and 97 % of control | [10] 102 % of control and 112 % of control

CCCC(=O)C(CC)C1(C(=O)OC)NC(=S)NC(=O)C1C#N (stereo not drawn)
inactive: [11] 98 % of control | [12] 105 % of control | [13] 98 % of control

CCN(CC)[Si](C)(C)N(CC)CC
inactive: [23] 100 % of control | [21] 100 % of control | [22] 104 % of control

C/C(=N\NC(N)=O)C1=C(O)C(C(C)C)NC1=O (stereo not drawn)
inactive: [3] 93 % of control | [9] 99 % of control | [10] 92 % of control | [17] 99 % of control

NNc1ccc(N(CCO)CCO)nn1
inactive: [5] 93 % of control | [6] 100 % of control | [7] 105 % of control
